This passage reports Activity and inhibition results from ChEMBL document CHEMBL3046558, “Effects of inositol 1,2,6-triphosphate on human liver cancer SMMC-7721 cells” (2012).

Active and inactive are the calls of the source. The calls are words filed in the database; no cut-off is given here.

Experiment [1] relates to SMMC-7721. In words: Effect on morphology of Homo sapiens (human) SMMC7721 cells assessed as disruption of cell structure at 300 ug/ml after 48 hr using HE staining by optical microscopy. The format is functional, cell-based.
Experiment [2] concerns SMMC-7721. In words: Antiproliferative activity against Homo sapiens (human) SMMC7721 cells at 500 ug/ml after 72 hr by MTT assay. Format: functional. A general note: Tetrazolium dyes change colour on reduction, which living cells bring about.
The test system of experiment [3] is SMMC-7721. In words: Cell cycle arrest in Homo sapiens (human) SMMC7721 cells assessed as accumulation at G2/M phase at 100 ug/ml after 3 days using PI staining by flow cytometry (Rvb =11.5 %). Format: functional. In general terms: In flow cytometry, cells or beads pass a laser one at a time.
For experiment [4], the system named is SMMC-7721. In words: Cell cycle arrest in Homo sapiens (human) SMMC7721 cells assessed as accumulation at S phase at 300 ug/ml after 3 days using PI staining by flow cytometry (Rvb =49.5 %). Format: functional.
Experiment [5] deals with SMMC-7721. In words: Antiproliferative activity against Homo sapiens (human) SMMC7721 cells at 50 ug/ml after 72 hr by MTT assay. The format is functional.
Experiment [6] concerns SMMC-7721. In words: Cell cycle arrest in Homo sapiens (human) SMMC7721 cells assessed as accumulation at G0/G1 phase at 500 ug/ml after 3 days using PI staining by flow cytometry (Rvb =39 %). The format is functional.
Experiment [7] deals with SMMC-7721. Briefly: Cell cycle arrest in Homo sapiens (human) SMMC7721 cells assessed as accumulation at S phase at 500 ug/ml after 3 days using PI staining by flow cytometry (Rvb =49.5 %). Format: functional.
For experiment [8], the system named is SMMC-7721. In words: Antiproliferative activity against Homo sapiens (human) SMMC7721 cells at 50 to 700 ug/ml by MTT assay. Format: functional, cell-based. To be noted: TDE = time-dependent effect.
In experiment [9] the test system is SMMC-7721. Briefly: Inhibition of PCNA expression in nucleolus of Homo sapiens (human) SMMC7721 cells […] after 48 hr by immunohistochemistry analysis. Format: functional, cell-based.
The test system of experiment [10] is SMMC-7721. In words: Cell cycle arrest in Homo sapiens (human) SMMC7721 cells assessed as accumulation at G0/G1 phase at 100 ug/ml after 3 days using PI staining by flow cytometry (Rvb =39 %). The format is functional.
Experiment [11] deals with SMMC-7721. In words: Antiproliferative activity against Homo sapiens (human) SMMC7721 cells at 700 ug/ml after 72 hr by MTT assay. The format is functional.
In experiment [12] the test system is SMMC-7721. Briefly: Cell cycle arrest in Homo sapiens (human) SMMC7721 cells assessed as accumulation at S phase at 100 ug/ml after 3 days using PI staining by flow cytometry (Rvb =49.5 %). Format: functional.
In experiment [13] the test system is SMMC-7721. In words: Antiproliferative activity against Homo sapiens (human) SMMC7721 cells at 100 ug/ml after 72 hr by MTT assay. The format is functional.
Experiment [14] has as its system SMMC-7721. Briefly: Effect on morphology of Homo sapiens (human) SMMC7721 cells assessed as cell detachment from matrix at 300 ug/ml after 48 hr using HE staining by optical microscopy. Format: functional, cell-based.
Experiment [15] concerns SMMC-7721. In words: Antiproliferative activity against Homo sapiens (human) SMMC7721 cells after 1 to 3 days by MTT assay. Format: functional, cell-based.
Experiment [16] deals with SMMC-7721. In words: Inhibition of AFP expression in cytoplasm of Homo sapiens (human) SMMC7721 cells […] after 48 hr by immunohistochemistry analysis. Format: functional, cell-based.
The subject of experiment [17] is SMMC-7721. In words: Cell cycle arrest in Homo sapiens (human) SMMC7721 cells assessed as accumulation at G0/G1 phase at 300 ug/ml after 3 days using PI staining by flow cytometry (Rvb =39 %). Format: functional.
In experiment [18] the test system is SMMC-7721. In words: Cell cycle arrest in Homo sapiens (human) SMMC7721 cells assessed as accumulation at G2/M phase at 500 ug/ml after 3 days using PI staining by flow cytometry (Rvb =11.5 %). Format: functional.
Experiment [19] deals with SMMC-7721. Briefly: Cell cycle arrest in Homo sapiens (human) SMMC7721 cells assessed as accumulation at G2/M phase at 300 ug/ml after 3 days using PI staining by flow cytometry (Rvb =11.5 %). The format is functional.
Experiment [20] deals with SMMC-7721. In words: Inhibition of AFP expression in nucleolus of Homo sapiens (human) SMMC7721 cells […] after 48 hr by immunohistochemistry analysis. Format: functional, cell-based.
Experiment [21] concerns SMMC-7721. Briefly: Antiproliferative activity against Homo sapiens (human) SMMC7721 cells at 300 ug/ml after 72 hr by MTT assay. The format is functional.

With `O=P(O)(O)O[C@@H]1[C@H](OP(=O)(O)O)[C@H](O)[C@@H](O)[C@H](O)[C@H]1OP(=O)(O)O` [ATRINOSITOL], the result in [1] and in experiment [14] was Active. Further, the Activity came out at 67.86% in experiment [2]; 21.6% in [3]; 30.5% in experiment [4]; 34.87% in experiment [5]; 68.1% in experiment [6]; 12.3% in experiment [7]. The Activity result was “tde” in experiment [8]; 39.4% in experiment [10]; 79.08% in experiment [11]; 39% in experiment [12]; 50.85% in [13]; “Dose-dependent effect” in experiment [15]. Also, the Activity is reported as 58.9% in experiment [17], 19.9% in experiment [18], 10.6% in experiment [19] and 59.52% in [21]. For the same compound, the inhibition entry in [9], in experiment [16] and in experiment [20] was “Dose-dependent effect” each time.
